Results taken from ChEMBL document CHEMBL1131327, “Selective Pneumocystis carinii dihydrofolate reductase inhibitors: design, synthesis, and biological evaluation of new 2,4-diamino-5-substituted-furo[2,3-d]pyrimidines” (J Med Chem, 1998).

What was measured:
[1] = biological target: T1, Bifunctional dihydrofolate reductase-thymidylate synthase (Toxoplasma gondii, UniProt Q07422)
T1 sequence (Q07422 whole entry): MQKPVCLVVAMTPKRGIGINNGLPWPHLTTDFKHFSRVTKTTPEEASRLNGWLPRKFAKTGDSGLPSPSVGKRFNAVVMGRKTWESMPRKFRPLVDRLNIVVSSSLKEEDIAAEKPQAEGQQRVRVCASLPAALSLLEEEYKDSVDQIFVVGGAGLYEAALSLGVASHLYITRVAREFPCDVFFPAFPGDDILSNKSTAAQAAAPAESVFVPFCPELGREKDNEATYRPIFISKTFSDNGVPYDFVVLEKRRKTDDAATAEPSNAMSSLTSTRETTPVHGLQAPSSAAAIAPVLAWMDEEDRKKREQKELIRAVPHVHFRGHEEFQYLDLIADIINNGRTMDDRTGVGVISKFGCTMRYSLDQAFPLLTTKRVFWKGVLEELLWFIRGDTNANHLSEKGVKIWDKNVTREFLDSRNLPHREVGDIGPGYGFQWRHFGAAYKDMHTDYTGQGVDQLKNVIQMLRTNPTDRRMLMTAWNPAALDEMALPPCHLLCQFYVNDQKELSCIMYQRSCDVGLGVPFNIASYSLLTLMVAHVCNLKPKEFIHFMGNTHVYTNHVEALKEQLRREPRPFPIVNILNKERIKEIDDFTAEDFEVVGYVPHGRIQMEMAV
Description: Inhibitory activity against dihydrofolate reductase from Toxoplasma gondii

[2] = biological target: T2, Dihydrofolate reductase (Rattus norvegicus, UniProt Q920D2)
T2 sequence (Q920D2 whole entry): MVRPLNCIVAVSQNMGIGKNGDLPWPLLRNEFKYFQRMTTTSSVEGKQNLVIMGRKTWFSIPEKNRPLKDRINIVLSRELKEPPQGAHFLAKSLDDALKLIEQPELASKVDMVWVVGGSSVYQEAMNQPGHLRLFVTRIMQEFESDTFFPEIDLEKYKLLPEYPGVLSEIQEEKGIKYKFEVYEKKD
Description: Inhibitory activity against dihydrofolate reductase from rat liver

[3] = biological target: T3, Dihydrofolate reductase (Pneumocystis carinii, UniProt P16184)
T3 sequence (P16184 whole entry): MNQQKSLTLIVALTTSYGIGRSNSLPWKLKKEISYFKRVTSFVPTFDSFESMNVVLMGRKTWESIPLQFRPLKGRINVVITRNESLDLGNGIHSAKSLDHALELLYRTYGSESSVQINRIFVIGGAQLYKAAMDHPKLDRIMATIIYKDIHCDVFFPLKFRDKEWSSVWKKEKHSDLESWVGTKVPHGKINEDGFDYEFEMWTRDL
Description: Inhibitory activity against dihydrofolate reductase from pneumocystis carinii

| Compound | IC50 [2] | IC50 [3] | IC50 [1] |
| --- | --- | --- | --- |
| Nc1nc(N)c2c(CNc3ccc4ccccc4c3)coc2n1 | 36.5 µM | 41 µM | 38 µM |
| Nc1nc(N)c2c(CNc3ccc(Oc4ccccc4)cc3)coc2n1 | – | – | 32.4 µM |
| Nc1nc(N)c2c(CSc3ccccc3)coc2n1 | – | > 26 µM | > 26 µM |
| Nc1nc(N)c2c(CNc3cc(Cl)ccc3Cl)coc2n1 | – | – | > 47 µM |
| Nc1nc(N)c2c(CNc3ccccc3Oc3ccccc3)coc2n1 | > 12 µM | > 12 µM | > 12 µM |

Now from value to compound, other results behind:

| IC50 [2] | IC50 [3] | Compound | IC50 [1] |
| --- | --- | --- | --- |
| > 27 µM | 44.8 µM | CN(Cc1coc2nc(N)nc(N)c12)c1ccc(Cl)c(Cl)c1 | > 27 µM |
| > 27 µM | > 27 µM | COc1ccc(OC)c(N(C)Cc2coc3nc(N)nc(N)c23)c1 | > 27 µM |
| > 31.3 µM | > 31.3 µM | COc1cccc(NCc2coc3nc(N)nc(N)c23)c1 | > 31.3 µM |
| 14.6 µM | 14.8 µM | CN(Cc1coc2nc(N)nc(N)c12)c1ccc2ccccc2c1 | – |
| 137 µM | – | Nc1nc(N)c2c(CNc3ccccc3-c3ccccc3)coc2n1 | – |
| – | 284 µM | CN(Cc1coc2nc(N)nc(N)c12)c1cc(Cl)c(Cl)c(Cl)c1 | – |
